In PMC8160793, “Potent Antimicrobial and Antibiofilm Activities of Feleucin-K3 Analogs Modified by α-(4-Pentenyl)-Ala against Multidrug-Resistant Bacteria” (Biomolecules, 2021):
Values after ≈ are worked out from the molar mass of the structure shown. Square brackets hold non-standard residues; d marks the D form. Peptide text beside a SMILES is read from it. ξ: configuration not given here. ξαMeGly(pent-4-enyl) = C=CCCCC(C)(N)C(=O)O

Assays:
E. coli ATCC 25922 = format: cell-based; details: ATCC 25922, 18 h
Protocol: (§1) The minimum inhibitory concentration (MIC) of the Feleucin-K3 analogs was tested by the broth microdilution method. Sensitive bacteria and drug-resistant bacteria were diluted to 1 × 10^6 CFU/mL, according to the McFarland standards. Bacterial suspension and peptide solutions (8–128 μg/mL) were incubated at 37 °C for 18 h. The minimum concentration without obvious bacterial growth was the MIC of the peptides. The stability of the analogs in a physiological salt environment was also investigated. In brief, salt powder (450-mM NaCl) was dissolved in deionized water, and the following investigational steps were the same as those described before. The above steps were repeated several times, until the same value was obtained three times.

MRSA 113 = format: cell-based, Staphylococcus aureus; details: 113, 18 h
Protocol: as §1

MRSA 23 = format: cell-based, Staphylococcus aureus; details: 23, 18 h
Protocol: as §1

MRSA 48 = format: cell-based, Staphylococcus aureus; details: 48, 18 h
Protocol: as §1

MRSA 51 = format: cell-based, Staphylococcus aureus; details: 51, 18 h
Protocol: as §1

MRSA 52 = format: cell-based, Staphylococcus aureus; details: 52, 18 h
Protocol: as §1

MRSA 54 = format: cell-based, Staphylococcus aureus; details: 54, 18 h
Protocol: as §1

MRSA 71 = format: cell-based, Staphylococcus aureus; details: 71, 18 h
Protocol: as §1

MRSA 74 = format: cell-based, Staphylococcus aureus; details: 74, 18 h
Protocol: as §1

MRSA 75 = format: cell-based, Staphylococcus aureus; details: 75, 18 h
Protocol: as §1

MRSA 936 = format: cell-based, Staphylococcus aureus; details: 936, 18 h
Protocol: as §1

MRSA ATCC 33591 = format: cell-based, Staphylococcus aureus; details: ATCC 33591, 18 h
Protocol: as §1

S. aureus 725 = format: cell-based, Staphylococcus aureus; details: 725, 18 h
Protocol: as §1

S. aureus 794 = format: cell-based, Staphylococcus aureus; details: 794, 18 h
Protocol: as §1

S. aureus ATCC 25923 = format: cell-based, Staphylococcus aureus; details: ATCC 25923, 18 h
Protocol: as §1

P. aeruginosa ATCC 27853 = format: cell-based, Pseudomonas aeruginosa; details: ATCC 27853, 18 h
Protocol: as §1

A. baumannii 51243 = format: cell-based, Acinetobacter baumannii; details: 51243, 18 h
Protocol: as §1

A. baumannii 5444 = format: cell-based, Acinetobacter baumannii; details: 5444, 18 h
Protocol: as §1

A. baumannii 822144 = format: cell-based, Acinetobacter baumannii; details: 822144, 18 h
Protocol: as §1

A. baumannii 8309 = format: cell-based, Acinetobacter baumannii; details: 8309, 18 h
Protocol: as §1

A. baumannii 91105 = format: cell-based, Acinetobacter baumannii; details: 91105, 18 h
Protocol: as §1

A. baumannii 91152 = format: cell-based, Acinetobacter baumannii; details: 91152, 18 h
Protocol: as §1

A. baumannii 91199 = format: cell-based, Acinetobacter baumannii; details: 91199, 18 h
Protocol: as §1

A. baumannii 91810 = format: cell-based, Acinetobacter baumannii; details: 91810, 18 h
Protocol: as §1

A. baumannii 91869 = format: cell-based, Acinetobacter baumannii; details: 91869, 18 h
Protocol: as §1

A. baumannii 91944 = format: cell-based, Acinetobacter baumannii; details: 91944, 18 h
Protocol: as §1

A. baumannii 9234 = format: cell-based, Acinetobacter baumannii; details: 9234, 18 h
Protocol: as §1

A. baumannii 92359 = format: cell-based, Acinetobacter baumannii; details: 92359, 18 h
Protocol: as §1

A. baumannii 9236 = format: cell-based, Acinetobacter baumannii; details: 9236, 18 h
Protocol: as §1

A. baumannii 9331 = format: cell-based, Acinetobacter baumannii; details: 9331, 18 h
Protocol: as §1

A. baumannii 9336 = format: cell-based, Acinetobacter baumannii; details: 9336, 18 h
Protocol: as §1

A. baumannii 97830 = format: cell-based, Acinetobacter baumannii; details: 97830, 18 h
Protocol: as §1

A. baumannii 98110 = format: cell-based, Acinetobacter baumannii; details: 98110, 18 h
Protocol: as §1

A. baumannii 9828 = format: cell-based, Acinetobacter baumannii; details: 9828, 18 h
Protocol: as §1

A. baumannii 9840 = format: cell-based, Acinetobacter baumannii; details: 9840, 18 h
Protocol: as §1

A. baumannii 9896 = format: cell-based, Acinetobacter baumannii; details: 9896, 18 h
Protocol: as §1

A. baumannii ATCC 19606 = format: cell-based, Acinetobacter baumannii; details: ATCC 19606, 18 h
Protocol: as §1

Q: What does the source list for `C=CCCCC(C)(NC(=O)[C@H](CCCCN)NC(=O)[C@H](CCCCN)NC(=O)[C@H](CC(C)C)NC(=O)[C@H](CC(C)C)NC(=O)[C@H](CCCCN)NC(=O)[C@H](CC(C)C)NC(=O)[C@@H](N)Cc1ccccc1)C(=O)N[C@@H](CC(C)C)C(N)=O` (stereo partly drawn) [Feleucin-K69] (H-FLKLLKK[ξαMeGly(pent-4-enyl)]L-NH2)?
A: MIC, E. coli ATCC 25922 (E. coli ATCC 25922): 8 µg/mL (≈ 7.01 µM); MIC, MRSA 113 (MRSA 113): 4 µg/mL (≈ 3.51 µM); MIC, MRSA 23 (MRSA 23): 4 µg/mL (≈ 3.51 µM); MIC, MRSA 48 (MRSA 48): 4 µg/mL (≈ 3.51 µM); MIC, MRSA 51 (MRSA 51): 4 µg/mL (≈ 3.51 µM); MIC, MRSA 52 (MRSA 52): 4 µg/mL (≈ 3.51 µM); MIC, MRSA 54 (MRSA 54): 4 µg/mL (≈ 3.51 µM); MIC, MRSA 71 (MRSA 71): 4 µg/mL (≈ 3.51 µM); MIC, MRSA 74 (MRSA 74): 8 µg/mL (≈ 7.01 µM); MIC, MRSA 75 (MRSA 75): 4 µg/mL (≈ 3.51 µM); MIC, MRSA 936 (MRSA 936): 4 µg/mL (≈ 3.51 µM); MIC, MRSA ATCC 33591 (MRSA ATCC 33591): 4 µg/mL (≈ 3.51 µM); MIC, S. aureus 725 (S. aureus 725): 4 µg/mL (≈ 3.51 µM); MIC, S. aureus 794 (S. aureus 794): 8 µg/mL (≈ 7.01 µM); MIC, S. aureus ATCC 25923 (S. aureus ATCC 25923): 4 µg/mL (≈ 3.51 µM); MIC, P. aeruginosa ATCC 27853 (P. aeruginosa ATCC 27853): 8 µg/mL (≈ 7.01 µM); MIC, A. baumannii 51243 (A. baumannii 51243): 8 µg/mL (≈ 7.01 µM); MIC, A. baumannii 5444 (A. baumannii 5444): 8 µg/mL (≈ 7.01 µM); MIC, A. baumannii 822144 (A. baumannii 822144): 8 µg/mL (≈ 7.01 µM); MIC, A. baumannii 8309 (A. baumannii 8309): 8 µg/mL (≈ 7.01 µM); MIC, A. baumannii 91105 (A. baumannii 91105): 8 µg/mL (≈ 7.01 µM); MIC, A. baumannii 91152 (A. baumannii 91152): 8 µg/mL (≈ 7.01 µM); MIC, A. baumannii 91199 (A. baumannii 91199): 8 µg/mL (≈ 7.01 µM); MIC, A. baumannii 91810 (A. baumannii 91810): 8 µg/mL (≈ 7.01 µM); MIC, A. baumannii 91869 (A. baumannii 91869): 8 µg/mL (≈ 7.01 µM); MIC, A. baumannii 91944 (A. baumannii 91944): 8 µg/mL (≈ 7.01 µM); MIC, A. baumannii 9234 (A. baumannii 9234): 8 µg/mL (≈ 7.01 µM); MIC, A. baumannii 92359 (A. baumannii 92359): 4 µg/mL (≈ 3.51 µM); MIC, A. baumannii 9236 (A. baumannii 9236): 8 µg/mL (≈ 7.01 µM); MIC, A. baumannii 9331 (A. baumannii 9331): 8 µg/mL (≈ 7.01 µM); MIC, A. baumannii 9336 (A. baumannii 9336): 8 µg/mL (≈ 7.01 µM); MIC, A. baumannii 97830 (A. baumannii 97830): 8 µg/mL (≈ 7.01 µM); MIC, A. baumannii 98110 (A. baumannii 98110): 8 µg/mL (≈ 7.01 µM); MIC, A. baumannii 9828 (A. baumannii 9828): 8 µg/mL (≈ 7.01 µM); MIC, A. baumannii 9840 (A. baumannii 9840): 8 µg/mL (≈ 7.01 µM); MIC, A. baumannii 9896 (A. baumannii 9896): 8 µg/mL (≈ 7.01 µM); MIC, A. baumannii ATCC 19606 (A. baumannii ATCC 19606): 8 µg/mL (≈ 7.01 µM)
